Reference: publication PMC4922569, “Antifibrotic Effects of the Dual CCR2/CCR5 Antagonist Cenicriviroc in Animal Models of Liver and Kidney Fibrosis” (PLoS ONE, 2016)
Where a name gives a salt, the structure may show the parent alone.

Tests used:
[1] = tested on: TAA-induced liver fibrosis; test: Rat model of thioacetamide (TAA)-induced liver fibrosis; type: in vivo; conditions: for Reduction in liver collagen deposition vs vehicle control: picrosirius red; for Reduction in protein expression of alpha-SMA vs vehicle control / Reduction in protein expression of collagen type 1 vs vehicle control: western blot, not statistically significant
Procedure: The TAA model is commonly used for the evaluation of treatment at various stages of disease, from inflammation to cirrhosis. The protocol was approved by the Mount Sinai IACUC (approval number: LA12-00318) and animals were maintained according to the NIH guidelines. Anesthesia was performed with 1–5% isoflurane through inhalation; surgery was terminal.
(§1) Using male Sprague-Dawley rats (n = 72, 10–12 weeks of age; Harlan Laboratories, USA), fibrosis was induced by IP administration of TAA at a dose of 150 mg/kg three times per week for 8 weeks. Rats (n = 4–8/group) received vehicle control, CVC 30 mg/kg/day (CVC30) or CVC100 QD PO during Weeks 0–8 (early intervention), Weeks 4–8 (established fibrosis) or Weeks 8–12 (cirrhosis reversal) and were sacrificed at Weeks 8, 8 or 12, respectively (S1 Table). Study endpoints included: body and liver weights, liver biochemistry (e.g. serum alanine and aspartate aminotransferase [ALT/AST]), extracellular matrix protein expression in liver tissue (collagen type 1 and alpha-SMA), mRNA expression (collagen type 1, alpha-SMA, beta-platelet-derived growth factor-beta receptor, TGF beta-receptor, matrix metalloproteinase 2, tissue inhibitor of metalloproteinases 1 [TIMP1] and 2 [TIMP2]) and liver morphology. For liver-function testing, plasma samples were obtained from blood collected from the vena cava. Livers were sectioned and fixed in 3.7% formalin, embedded in paraffin, cut at […] thickness and stained with hematoxylin and eosin (H&E) for histological examination.
In the TAA model, serum ALT/AST levels were measured using VITROS® 5,1 FS (Ortho Clinical Diagnostics, USA), with plasma diluted with VITROS® 7% bovine serum albumin if needed. In the NASH model, plasma ALT levels were measured by FUJI DRI-CHEM 7000 (Fujifilm, Japan) and plasma CCL2 concentration quantified by the mouse CCL2/JE/MCP-1 immunoassay kit (R&D, USA).
Collagen deposition (the extent of fibrosis) was visualized in liver/kidney sections with picrosirius red staining. In the TAA model, collagen quantification was performed using computerized Life Science morphometry system (BIOQUANT, USA) on a total of 36 images per animal at 100x magnification (four picrosirius red-stained slides per animal, with nine images taken randomly per slide).
In the TAA model, total protein was extracted from liver cells and expression levels of collagen type 1 and alpha-SMA were assessed by western blotting. Protein expression levels were normalized to the reference protein (glyceraldehyde-3-phosphate dehydrogenase [GAPDH] or calnexin).
In the hepatic-fibrosis models, RNA was extracted from liver tissues and purified, and 1 μg of total mRNA was reverse-transcribed into complementary DNA. Expression levels were determined by quantitative polymerase chain reaction (PCR) (iQ™ SYBR® Green Supermix [Bio-Rad Laboratories, USA] on the LightCycler® 480 Real-Time PCR System [Roche, Switzerland]) in the TAA model at Week 8 (early intervention and established fibrosis) and Week 12 (cirrhosis reversal), and by real-time PCR (PCR Dice® and SYBR® Premix Ex Taq™ [Takara Bio Inc., Japan]) at Week 9 in the NASH model.
Relative mRNA expression levels were normalized to the following reference genes: TAA model, GAPDH; NASH model, 36B4 (gene symbol: Rplp0); UUO model, hypoxanthine phosphoribosyltransferase.
Data are presented as ±standard error of the mean (SEM) in the TAA model. Statistical significance was determined by the two-tailed Student’s t test.

[2] = CVC plasma levels in the UUO model (LC/MS/MS); type: in vivo; conditions: n = 8, ~4 hours post-dose (approximate Cmax), Day 5
Procedure: Male CD-1 mice (n = 51; 7–8 weeks of age; Charles River Laboratories, USA) were allocated to weight-matched treatment groups on Day -1 (1 day prior to either sham [one group] or permanent right UUO surgery [five groups] via aseptic laparotomy). From Days -1 to 4, mice received phosphate-buffered saline (PBS) IP QD, apart from a positive-control group, which received 1D11 (anti-TGF-beta1 antibody) 3 mg/kg IP QD. From Days 0 to 5, mice received vehicle control (sham surgery, UUO-control and UUO+positive-control groups) or CVC 7 mg/kg/day (CVC7), CVC20 or CVC100 PO BID (S1 Table). The CVC100 group was terminated due to poor clinical condition (6/9 animals died and 3/9 euthanized prior to end of study). Of note, a similar dose of CVC100 administered for 3 weeks was well tolerated in the mouse NASH model; therefore, it is plausible that the laparotomy and UUO surgery in combination with CVC may have contributed to the loss of animals. […]
CVC plasma levels (minimum and maximum) were determined by KCAS Bioanalytical Services, USA, using a validated liquid chromatography-tandem mass spectrometry (LC/MS/MS) plasma method (50 μL assay, range 10.0−1920.0 ng/mL).

[3] = Body and liver weights, TAA model; type: in vivo, rat; conditions: average±SD
Procedure: as §1
Body weight (measured before and during treatment) and sacrificed animal body and liver/kidney/spleen weights were recorded.

[4] = cirrhosis reversal, CVC 30 mg/kg/day
[5] = cirrhosis reversal, CVC 100 mg/kg/day
[6] = early intervention, CVC 30 mg/kg/day
[7] = early intervention, CVC 100 mg/kg/day
[8] = established fibrosis, CVC 30 mg/kg/day
[9] = established fibrosis, CVC 100 mg/kg/day

CCCCOCCOc1ccc(-c2ccc3c(c2)/C=C(/C(=O)Nc2ccc([S@@+]([O-])Cc4cncn4CCC)cc2)CCCN3CC(C)C)cc1 [CVC, cenicriviroc mesylate]
mRNA expression of the fibrosis markers assessed, CVC vs vehicle control ([1]; TAA model): no significant changes
ALT levels, CVC-treated vs vehicle-control groups ([1]; TAA model, all groups): no significant differences
Reductions in collagen type 1 and alpha-SMA protein expression ([1]; advanced disease cirrhosis group): No reductions
Histologic differences between groups, H&E-stained liver sections ([1]; all TAA groups): No histologic differences
Reduction in collagen deposition ([1]; cirrhosis-reversal group, CVC treatment started at Week 8 (Weeks 8-12)): No significant reduction
Reduction in liver collagen deposition vs vehicle control ([1]; early intervention (Weeks 0-8), CVC30 QD PO): 48.5%
Reduction in liver collagen deposition vs vehicle control ([1]; early intervention (Weeks 0-8), CVC100 QD PO): 37.5%
AST levels vs vehicle control ([1]; early intervention group, CVC30, p < 0.05): significantly decreased
Reduction in protein expression of alpha-SMA vs vehicle control ([1]; early intervention, CVC30): 17%
Reduction in protein expression of collagen type 1 vs vehicle control ([1]; early intervention, CVC30): 29%
Reduction in protein expression of alpha-SMA vs vehicle control ([1]; early intervention, CVC100): 22%
Reduction in protein expression of collagen type 1 vs vehicle control ([1]; early intervention, CVC100): 12%
Reduction in liver collagen deposition vs vehicle control ([1]; established fibrosis (Weeks 4-8), CVC30 QD PO): 35.7%
Significant antifibrotic effect (collagen deposition) observed ([1]; established fibrosis (Weeks 4-8), CVC100 QD PO): not
Reduction in protein expression of alpha-SMA vs vehicle control ([1]; established fibrosis, CVC30): 14%
Reduction in protein expression of collagen type 1 vs vehicle control ([1]; established fibrosis, CVC30): 30%
CVC concentration (mean±SD), plasma ([2]; CVC7 BID): 251 ± 364 ng/mL
CVC concentration (mean±SD), plasma ([2]; CVC20 BID): 971 ± 507 ng/mL
Final body weight [3, 4]: 390.3 ± 9.3 g
Liver weight [3, 4]: 19 ± 0.7 g
Liver-to-body weight ratio [3, 4]: 4.9±0.2%
Final body weight [3, 5]: 386.4 ± 4.9 g
Liver weight [3, 5]: 18.5 ± 0.7 g
Liver-to-body weight ratio [3, 5]: 4.8±0.2%
Final body weight [3, 6]: 330.9 ± 6.4 g
Liver weight [3, 6]: 17.9 ± 1.6 g
Liver-to-body weight ratio [3, 6]: 5.4±0.5%
Final body weight [3, 7]: 347.2 ± 6.9 g
Liver weight [3, 7]: 17.5 ± 0.5 g
Liver-to-body weight ratio [3, 7]: 5.0±0.1%
Final body weight [3, 8]: 342.0 ± 7.7 g
Liver weight [3, 8]: 15.6 ± 0.6 g
Liver-to-body weight ratio ([3]; established fibrosis, CVC 30 mg/kg/day, p < 0.05 vs vehicle control): 4.6±0.1 %
Final body weight [3, 9]: 327.3 ± 7.8 g
Liver weight [3, 9]: 15.8 ± 0.9 g
Liver-to-body weight ratio [3, 9]: 4.8±0.2%
